Data on 9 compounds can be found in patent US7816406B2, “Quinolone analogs” (Cylene Pharmaceuticals, Inc., priority 2004, dated 2010).

As usually defined, the IC50 is the midpoint of a concentration-inhibition curve. A high value points to weaker potency in that assay.

Holding throughout (format): cell-based
The test system of one assay is MiaPaca. The assay can be described thus: MTS cell proliferation assay, MiaPaca. To be noted: Table 1C. The procedure:
MTS assays. Antiproliferative effects of anticancer drugs are tested by the CellTiter 96 AQueous assay (Promega, WI), which is a colorimetric assay for determining the number of viable cells. (See, e.g., Wang, L., et al., Methods Cell Sci (1996) 18:249-255). Generally, cells (2,000 to 5,000 cells/well) are seeded on 96 well flat bottom plates (Corning, NY) in 100 μl of culture medium without any anticancer drug on day 0, and the culture medium is exchanged for that contained anticancer drugs at various concentrations on day 1. After incubation for 3 days under normal growth conditions (on day 4), the monolayers are washed once in PBS, and the medium is switched to 100 μl of PBS in each of the 96 well plate. After mixing MTS and PMS at the ratio of 20:1, 20 μl of MTS/PMS solution is added to each of the 96 well plate and incubated for 4 hours in a humidified atmosphere of 5% CO2 at 37° C. The absorbance is read at 490 nm using FLUOstar Galaxy 96 well plate reader (BMG Labtechnologies, Germany).
(Formazan colour is commonly taken as a measure of viable cells.)

Another assay relates to Hela. The experiment in a line: TumorCell MeanTimeSurvival (Alamar Blue Stain), Hela. To be noted: Homo sapiens.
Another assay relates to PC3. The assay can be described thus: TumorCell MeanTimeSurvival (Alamar Blue Stain), PC3. The note with it: Homo sapiens, PC-3. On the technique in general: The colour change of resazurin is a common sign of viable cells or microbes.
Another assay concerns HCT-116. The experiment in a line: TumorCell MeanTimeSurvival (Alamar Blue Stain), HCT-116. To be noted: Homo sapiens.
Setting [1] is: Homo sapiens, MIA PaCa-2, M CELL MiaPaca.

Each structure is given as a SMILES string.

As to `O=C(NCCN1CCCC1)c1c(=O)c2c(N3CCCC3)ccnc2n2c1sc1ccccc12` [drawing 145], the IC50 in the assay on MiaPaca (setting [1]) came to 2.3 µM.
`CC(=O)NC1CCN(c2ccnc3c2c(=O)c(C(=O)NCCN2CCCC2)c2sc4ccccc4n23)C1` (stereo not shown) [drawing 147]: in the assay on MiaPaca (setting [1]), half-maximal inhibition (IC50) required 0.7 µM.
Regarding `O=C(NCCN1CCCC1)c1c(=O)c2cnc(N3CCCC3)nc2n2c1sc1ccc(Cl)cc12` [drawing 213], inhibition in the assay on MiaPaca (M CELL MiaPaca) was half-maximal at 0.3 µM (IC50). This counts as sub-micromolar.
`O=C1CN(c2ccnc3c2c(=O)c(C(=O)NCCN2CCOCC2)c2sc4ccccc4n23)CCN1` [drawing 234]: in the assay on MiaPaca (setting [1]), 6.6 µM corresponded to half-maximal inhibition (IC50).
The compound `O=C(NCCN1CCCC1)c1c(=O)c2ccc(N3CCN(c4ncccn4)CC3)nc2n2c1sc1ccc(Cl)cc12` [drawing 286] yielded an IC50 with MiaPaca (setting [1]) of 2.5 µM.
Take `CC(C)Nc1ncc2c(=O)c(C(=O)NCCN3CCCC3)c3sc4ccccc4n3c2n1` [drawing 330]: half-maximal inhibition in the assay on MiaPaca (setting [1]) (IC50) was put at 0.11 µM.
The same measure, in the same setting: the figure for `CN1CCCC1CCNC(=O)c1c(=O)c2ccc(N3CCNCC3)nc2n2c1sc1ccccc12` (stereo not shown) [drawing 358] is 0.01 µM.
Regarding `CN1CCCC1CCNC(=O)c1c(=O)c2cc(F)c(SCCc3cnccn3)cc2n2c1sc1ccccc12` (stereo not shown) [drawing 471], the IC50 with Hela came out at 2.8 µM; in the assay with PC3, 2.7 µM; in the assay with HCT-116 it was 1.1 µM.
`O=C(NCCN1CCCC1)c1c(=O)c2cc(F)c(SCCc3cnccn3)cc2n2c1sc1ccccc12` [drawing 472]: the IC50 was determined as 2.7 µM in the assay on Hela, 0.52 µM in the assay with PC3 and 0.57 µM in the assay with HCT-116.
